Experiments:
[1] = tested on: monocytes and lymphocytes; assay: Effect of ibuprofen on ROS production, comparative study; assay type: in vivo, human; conditions: ibuprofen 500 mg/d for 3 weeks, six healthy volunteers; preliminary data; compared with Lactobacillus plantarum 299v
Procedure: The measurement of cell oxidation is based on reactive oxygen species (ROS) mediated conversion of nonfluorescent 2,7′-dichlorofluorescein (DCFH), loaded into cells as 2,7′-dichlorofluorescein diacetate, into fluorescent DCF with increased fluorescence emission reflecting enhanced oxidative stress. Freshly isolated PBMC, consisting of approximatively 30% monocytes and 70% lymphocytes, were resuspended in phosphate buffered saline (PBS) followed by incubation with 20 μM […] at 37° C. for 30 min in the dark. The cells were then washed with PBS. The relative fluorescence intensity of the fluorophore 2′,7-dichlorofluorescein, which is formed by peroxide oxidation of its nonfluorescent precursor, was detected with cytofluorimetric assay (FACScan, Becton Dickinson). During flow cytometric analysis monocytes and lymphocytes were gated on the basis of forward scater (FCS) and side scater (SCC). The results are expressed as mean fluorescence intensity […].
In order to investigate the mechanisms behind the reduction of ROS by ibuprofen, a propionic acid derivative and a well-known antiinflammatory drug, ibuprofen was administered in an amount of 500 mg/d to the same group of six healthy volunteers as participated in the study described in Test 1 for 3 weeks.

[2] = tested on: Human monocyte macrophage cells; assay: Propionic acid induced reduction of oxidative stress (8-Isoprostane EIA); assay type: cell-based; conditions: 10 μM propionic acid 4 h, then LPS 1.0 ng/ml 24 h; versus control cells; mean of 3 experiments
Procedure: Human monocyte macrophage cells were isolated as described above and 6 million cells were preincubated in 2 ml of RPMI-1640 medium (10% fetalcalf serum, […] of penicillin/streptomycin, 2 mM glutamine) in dishes having a diameter of […]. 10 μM propionic acid was then added and the cells were incubated at 37° C. for 4 h. The medium was subsequently removed and replaced with fresh medium and the cells were stimulated with LPS (lipopolysaccharide), 1.0 ng/ml medium, in order to provoke prooxidant stress. After 24 h the medium was removed and concentrated 10 times by evaporation. Oxidative stress with and without (control cells) propionic acid was evaluated using the 8-Isoprostane EIA kit from Cayman Chemical.
The reduction of oxidative stress expressed as the mean value from 3 experiments of the decrease in the 8-isoprostane level was 47%.

SMILES | ROS response of monocytes and lymphocytes [1] | Reduction of oxidative stress, decrease in the 8-isoprostane level [2] [%]
CC(C)Cc1ccc(C(C)C(=O)O)cc1 (centres unmarked) [ibuprofen] | respond in exactly the same way | –
CCC(=O)O [propionic acid] | – | 47
